The experiment addresses T1, HCV protease 2A (Hepatitis C virus genotype 2a, UniProt P26660).
T1 construct: the catalytic domains of types 1b, 1J and 2a have also been examined
The experiment in a line: HCV protease type 2a, 9-mer substrate. It counts as biochemical. The source says: It is understood that other forms of HCV protease may be used in an assay for the determination of inhibitors. The present invention has disclosed the 1A form of HCV protease, however, the catalytic domains of types 1b, 1J and 2a have also been examined, as well as, the full-length version of form 1b. Evidence for the exosite exists in each case. Activation by Q9692 follows the trend of activation by NS4a. Forms of the enzyme that are more sensitive to NS4a display greater stimulation by Q9692 than forms that are less sensitive. In rank order sensitivity is 1J, 1B, 1A, and 2A. The catalytic activity of 2A toward the 9-mer substrate is enhanced by only 1.5-fold at 4 μM Q9692 and becomes inhibited by Q9692 at concentrations greater than 20 μM. […] Use of alternative forms of the HCV protease is relevent to development of an inexpensive and easy continous assay.

Where a SMILES comes first, the peptide text is derived from it. [ ]: non-standard residue; d: D form. Dip = N[C@H](C(=O)O)C(c1ccccc1)c1ccccc1; Cha = N[C@@H](CC1CCCCC1)C(=O)O

T1 sequence (P26660 1031-1212 limits assumed, other chains not shown): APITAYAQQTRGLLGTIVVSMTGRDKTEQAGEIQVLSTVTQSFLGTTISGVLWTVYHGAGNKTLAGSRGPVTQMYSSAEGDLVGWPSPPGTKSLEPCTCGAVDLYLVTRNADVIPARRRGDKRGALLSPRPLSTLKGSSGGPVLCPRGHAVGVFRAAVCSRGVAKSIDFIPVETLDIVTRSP

Regarding `CC(=O)N[C@@H](CC(=O)O)C(=O)N[C@@H](CCC(=O)O)C(=O)N[C@H](C(=O)N[C@@H](CCC(=O)O)C(=O)N[C@@H](CC1CCCCC1)C(=O)N[C@@H](CS)C(=O)O)C(c1ccccc1)c1ccccc1` [Q9692, Ac-Asp-Glu-Dpa-Glu-Cha-Cys—OH] (Ac-DE[Dip]E[Cha]C-OH), the “concentrations at which enzyme becomes inhibited” value is listed as “greater than 20 μM”. Also, the “enhancement of catalytic activity” value (4 μM Q9692) was 1.5 fold.
